Literature values, collected in patent US6194433A, “Sexual dysfunction in females” (Cutler; Neal R., priority 1998, dated 2001).

Assays:
[1] = not given; remark: listed apart in the source
phosphodiesterase III = conditions: Gristwood et al., Br. J. Pharmacol. 105:985 (1992)
phosphodiesterase = conditions: Frodsham et al., Eur. J. Pharmacol. 211:383 (1992)
[2] = Kelso et al., J Cardiovasc. Pharmacol. 25:376 (1995)
[3] = Perreault et al., Br. J Pharmacol. 106:511 (1992)
[4] = following coronary artery ligation; Jones et al., Br. J. Pharmacol. 108:1111 (1993)

| time of peak metabolite plasma levels (following oral dosage of flosequinan) | SMILES | time of peak plasma concentrations of flosequinan (following oral administration) [h] | mean absolute bioavailability (oral, single dose of fifty milligrams) [%] | solubility in organic solvents ([1]; many organic solvents) | water solubility ([1]; water) | inhibition of phosphodiesterase III (phosphodiesterase III) | phosphodiesterase inhibition as relevant to efficacy in heart failure (phosphodiesterase) | usefulness in the treatment of heart failure [2] | effect in patients with end-stage failure [3] | effect on mortality or arrhythmias [4] |
| --- | --- | --- | --- | --- | --- | --- | --- | --- | --- | --- |
| about seven | Cn1cc(S(C)(=O)=O)c(=O)c2ccc(F)cc21 [metabolite] |  |  |  |  |  |  |  |  |  |
|  | Cn1cc([S+](C)[O-])c(=O)c2ccc(F)cc21 (stereo not shown) [flosequinan, 7-fluoro-1-methyl-3-methylsulphinyl-4-quinolone] | 1 to 2 | 72 | soluble in many organic solvents | water soluble | selective inhibitor of phosphodiesterase III | questionable | useful to some degree | little effect | does not affect mortality or arrhythmias |
